Legend:
[1] = test system: small bowel transit; experiment: Small bowel (small intestinal) transit of a charcoal marker in rats; type: in vivo, rat
Protocol: A study was performed to characterize and compare the effects of bisacodyl, simethicone and combinations of bisacodyl and simethicone on small bowel transit time. Small intestinal transit time was studied as a surrogate for […] in the rat. Leng-Peschlow, E., “Effect of Sennosides A+B and Bisacodyl on rat large intestine”, Pharmacology, vol. 38 (1989), 310-318 (1989). […] The prokinetic efficacy of bisacodyl in the small intestine may differ from that observed in the large intestine by Leng-Psechlow. For the small intestinal transit model a sub-therapeutic dose of 25mg/kg bisacodyl was chosen. Rats were dosed with a suspension of powdered charcoal, which served as a non-absorbable marker. The rats were also dosed with bisacodyl USP 23 (ZetaPharm, Inc.) and simethicone supplied as […]® drops and activated charcoal (Sigma Chemical). Six treatments were compared a control; simethicone 15 mg/kg; bisacodyl 25 mg/kg; and bisacodyl 25 mg/kg and simethicone at 5, 10 or 15 mg/kilogram. Dosing preparations of charcoal suspension (10 weight percent) were made freshly each day by adding dry powder to 0.5 percent methylcellulose in water and stirring. Dosing preparations were made each day by adding the appropriate quantity of bisacodyl and/or simethicone drops to the charcoal suspension. All treatments were administered orally, using the dose volume of 10 milliliters per kilogram. Sixty minutes after dosing, the rats were sacrificed and small bowel transit rate was determined by identifying the charcoal marker and measuring its distance from the pylorus.

[2] = test system: large intestinal transit; details: 50 mg/kg bisacodyl given orally, rat; cited from earlier work
[3] = test system: fecal output; details: 10-100 mg/kg bisacodyl given orally, rat; cited from earlier work

In the case of `CC(=O)Oc1ccc(C(c2ccc(OC(C)=O)cc2)c2ccccn2)cc1` [Bisacodyl, bisacodyl], the Mean % traveled ([1]; bisacodyl 25 mg/kg oral, rat, charcoal marker, 60 min after dosing) was 80.7%, the “% Increase” value ([1]; compared to vehicle control, bisacodyl 25 mg/kg oral, rat) was 1% and the “small bowel transit compared with control” value ([1]; rats treated with simethicone alone or bisacodyl alone) was “not different from control”. The large intestinal transit [2] was “significantly stimulated” and the fecal output [3] was “increased fecal output”.

Source: patent publication US20020071872A1, “Laxative composition” (priority 1999, published 2002)
